pIC50: −log10 of the molar value.
System: 253994-281-T-J1-PDC KRAS-mutant spheroids with HUVEC/MSC, viability
Assay: Anticancer human tumor 253994-281-T-J1-PDC patient-derived colorectal carcinoma cell line growth inhibition [KRAS2]
Settings: for pIC50: curve of first compound; for viability, T/C: stronger effect = lower value
Outline: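 KRAS-mutant tumor cells were grown as spheroids with HUVEC endothelial cells and human MSCs as stroma. Targeted agents were tested alone and with KRAS pathway inhibitors. Doses started at or near clinical Cmax, or 10 microM, descending half-log.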

[1] = second compound 0.1 µM, first compound 0.01 µM
[2] = second compound 0.1 µM, first compound 0.0316 µM
[3] = second compound 0.1 µM, first compound 0.1 µM
[4] = second compound 0.1 µM, first compound 0.316 µM
[5] = second compound 0.1 µM, first compound 1 µM
[6] = second compound 0.1 µM, first compound 3.16 µM
[7] = second compound 0.316 µM, first compound 0.01 µM
[8] = second compound 0.316 µM, first compound 0.0316 µM
[9] = second compound 0.316 µM, first compound 0.1 µM
[10] = second compound 0.316 µM, first compound 0.316 µM
[11] = second compound 0.316 µM, first compound 1 µM
[12] = second compound 0.316 µM, first compound 3.16 µM
[13] = second compound 1 µM, first compound 0.01 µM
[14] = second compound 1 µM, first compound 0.0316 µM
[15] = second compound 1 µM, first compound 0.1 µM
[16] = second compound 1 µM, first compound 0.316 µM
[17] = second compound 1 µM, first compound 1 µM
[18] = second compound 1 µM, first compound 3.16 µM
[19] = second compound 3.16 µM, first compound 0.01 µM
[20] = second compound 3.16 µM, first compound 0.0316 µM
[21] = second compound 3.16 µM, first compound 0.1 µM
[22] = second compound 3.16 µM, first compound 0.316 µM
[23] = second compound 3.16 µM, first compound 1 µM
[24] = second compound 3.16 µM, first compound 3.16 µM
[25] = second compound 10 µM, first compound 0.01 µM
[26] = second compound 10 µM, first compound 0.0316 µM
[27] = second compound 10 µM, first compound 0.1 µM
[28] = second compound 10 µM, first compound 0.316 µM
[29] = second compound 10 µM, first compound 1 µM
[30] = second compound 10 µM, first compound 3.16 µM
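Further: spheroids exposed to agents for seven days before readout.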
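Wherever viability, T/C is given: percent of DMSO vehicle control viability.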

Row | SMILES | pIC50 (second compound 0.1 µM) | pIC50 (second compound 0.316 µM) | pIC50 (second compound 1 µM) | pIC50 (second compound 3.16 µM) | pIC50 (second compound 10 µM) | viability, T/C [1] [%] | viability, T/C [2] [%] | viability, T/C [3] [%] | viability, T/C [4] [%] | viability, T/C [5] [%] | viability, T/C [6] [%] | viability, T/C [7] [%] | viability, T/C [8] [%] | viability, T/C [9] [%] | viability, T/C [14] [%] | viability, T/C [15] [%] | viability, T/C [20] [%] | viability, T/C [21] [%] | viability, T/C [26] [%] | viability, T/C [27] [%] | also measured
1 | CC(=O)OC12COC1CC(O)C1(C)C(=O)C(O)C3=C(C)C(OC(=O)C(O)C(NC(=O)OC(C)(C)C)c4ccccc4)CC(O)(C(OC(=O)c4ccccc4)C21)C3(C)C (stereo not given) + CNCc1ccccc1-c1csc(C(C)Nc2nc(C)nc3cc(OC)c(OC)cc23)c1 | 7.75 | 7.89 | 7.56 | > 8.00 | > 8.00 | 68.3 | 31.9 | 26.6 | 24.7 | 27.1 | 25.2 | 55.8 | 30.1 | 23.1 | 46.6 | 26.6 | 45.6 | 5.64 | 0.19 | 0.16 | viability, T/C [10]: 24%; viability, T/C [11]: 26%; viability, T/C [12]: 23.6%; viability, T/C [13]: 74.8%; viability, T/C [16]: 25.6%; viability, T/C [17]: 24.4%; viability, T/C [18]: 27%; viability, T/C [19]: 0.31%; viability, T/C [22]: 0.12%; viability, T/C [23]: 6.77%; viability, T/C [24]: 27.2%; viability, T/C [25]: 0.17%; viability, T/C [28]: 0.15%; viability, T/C [29]: 0.17%; viability, T/C [30]: 0.21%
2 | CN(C)C/C=C/C(=O)Nc1cc2c(Nc3ccc(F)c(Cl)c3)ncnc2cc1O[C@H]1CCOC1 + CNCc1ccccc1-c1csc(C(C)Nc2nc(C)nc3cc(OC)c(OC)cc23)c1 | < 7.00 | < 7.00 | < 7.00 | 8.63 | > 9.50 | 74.4 | 83.4 | 54.7 | – | – | – | 69 | 67.2 | 51 | 60.5 | 62.1 | 68.7 | 34.4 | 0.33 | 0.24 | viability, T/C (second compound 0.1 µM, first compound 0.000316 µM): 99.3%; viability, T/C (second compound 0.1 µM, first compound 0.001 µM): 91.9%; viability, T/C (second compound 0.1 µM, first compound 0.00316 µM): 80.3%; viability, T/C (second compound 0.316 µM, first compound 0.000316 µM): 81.7%; viability, T/C (second compound 0.316 µM, first compound 0.001 µM): 78.1%; viability, T/C (second compound 0.316 µM, first compound 0.00316 µM): 81.3%; viability, T/C (second compound 1 µM, first compound 0.000316 µM): 83.2%; viability, T/C (second compound 1 µM, first compound 0.001 µM): 83%; viability, T/C (second compound 1 µM, first compound 0.00316 µM): 60.4%; viability, T/C [13]: 64.9%; viability, T/C (second compound 3.16 µM, first compound 0.000316 µM): 93.9%; viability, T/C (second compound 3.16 µM, first compound 0.001 µM): 97.6%; viability, T/C (second compound 3.16 µM, first compound 0.00316 µM): 33.2%; viability, T/C [19]: 0.82%; viability, T/C (second compound 10 µM, first compound 0.000316 µM): 0.18%; viability, T/C (second compound 10 µM, first compound 0.001 µM): 0.2%; viability, T/C (second compound 10 µM, first compound 0.00316 µM): 0.17%; viability, T/C [25]: 0.26%
3 | O=C(c1cc(Cc2n[nH]c(=O)c3ccccc23)ccc1F)N1CCN(C(=O)C2CC2)CC1 + CNCc1ccccc1-c1csc(C(C)Nc2nc(C)nc3cc(OC)c(OC)cc23)c1 | < 5.00 | < 5.00 | < 5.00 | > 7.50 | > 7.50 | – | 101 | 85.3 | 99.8 | 94.3 | 95.2 | – | 103 | 98.5 | 96.4 | 119 | 19.2 | 45 | 0.17 | 0.16 | viability, T/C (second compound 0.1 µM, first compound 10 µM): 96.2%; viability, T/C [10]: 90.5%; viability, T/C [11]: 92.7%; viability, T/C [12]: 99.5%; viability, T/C (second compound 0.316 µM, first compound 10 µM): 97.5%; viability, T/C [16]: 93.8%; viability, T/C [17]: 82.9%; viability, T/C [18]: 75.7%; viability, T/C (second compound 1 µM, first compound 10 µM): 78.2%; viability, T/C [22]: 12.3%; viability, T/C [23]: 35.3%; viability, T/C [24]: 16.5%; viability, T/C (second compound 3.16 µM, first compound 10 µM): 11%; viability, T/C [28]: 0.17%; viability, T/C [29]: 0.19%; viability, T/C [30]: 0.17%; viability, T/C (second compound 10 µM, first compound 10 µM): 0.24%
